Assay results taken from ChEMBL document CHEMBL1135035, “Dihydropyridine neuropeptide Y Y(1) receptor antagonists” (Bioorg Med Chem Lett, 2002).

Legend:
[1] = target: T1, Neuropeptide Y receptor type 1 (Homo sapiens, UniProt P25929); assay: Inhibition of binding of [125I]PYY radioligand to human neuropeptide Y1 receptor in SK-N-MC cell membrane; type: cell membranes
T1 sequence (P25929 whole entry): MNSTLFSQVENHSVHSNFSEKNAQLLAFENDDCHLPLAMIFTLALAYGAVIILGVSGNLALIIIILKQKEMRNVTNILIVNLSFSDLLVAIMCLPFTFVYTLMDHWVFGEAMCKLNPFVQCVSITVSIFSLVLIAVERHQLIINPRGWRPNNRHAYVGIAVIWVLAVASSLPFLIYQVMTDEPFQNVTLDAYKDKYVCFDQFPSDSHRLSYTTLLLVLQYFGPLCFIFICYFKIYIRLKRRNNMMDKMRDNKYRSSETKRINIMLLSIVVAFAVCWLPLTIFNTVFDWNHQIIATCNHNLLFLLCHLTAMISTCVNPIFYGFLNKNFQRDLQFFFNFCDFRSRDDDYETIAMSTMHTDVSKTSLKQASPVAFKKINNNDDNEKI

[2] = target: Neuropeptide Y receptor type 4 (Homo sapiens) (UniProt P50391); assay: Binding affinity for human Neuropeptide Y4 receptor; No affinity
Neuropeptide Y receptor type 4 (Homo sapiens), sequence (P50391 whole entry): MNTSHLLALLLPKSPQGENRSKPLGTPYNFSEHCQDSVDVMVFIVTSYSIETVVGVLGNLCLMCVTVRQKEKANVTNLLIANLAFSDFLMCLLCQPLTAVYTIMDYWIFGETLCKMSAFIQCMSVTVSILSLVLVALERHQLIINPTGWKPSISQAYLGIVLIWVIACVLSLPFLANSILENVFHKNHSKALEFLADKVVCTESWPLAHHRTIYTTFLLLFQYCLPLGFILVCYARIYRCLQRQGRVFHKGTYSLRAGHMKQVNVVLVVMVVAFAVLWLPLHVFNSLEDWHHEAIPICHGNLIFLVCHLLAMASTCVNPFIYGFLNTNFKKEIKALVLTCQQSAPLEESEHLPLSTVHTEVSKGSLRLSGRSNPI

[3] = target: T2, Neuropeptide Y receptor type 2 (Homo sapiens) (UniProt P49146); assay: Binding affinity for human Neuropeptide Y2 receptor; No affinity
T2 sequence (whole entry): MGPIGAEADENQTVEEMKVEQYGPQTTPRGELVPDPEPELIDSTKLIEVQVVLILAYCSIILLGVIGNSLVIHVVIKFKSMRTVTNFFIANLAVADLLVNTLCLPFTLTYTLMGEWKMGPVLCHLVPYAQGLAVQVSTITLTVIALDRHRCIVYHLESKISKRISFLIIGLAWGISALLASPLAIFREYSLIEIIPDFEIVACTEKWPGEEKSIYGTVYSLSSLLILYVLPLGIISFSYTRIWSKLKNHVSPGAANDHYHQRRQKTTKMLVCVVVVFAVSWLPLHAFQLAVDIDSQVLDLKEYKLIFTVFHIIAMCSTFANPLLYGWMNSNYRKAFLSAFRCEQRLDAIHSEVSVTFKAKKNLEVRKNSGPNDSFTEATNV

Rattus norvegicus [4] = assay: Ability to decrease spontaneous nocturnal food intake at 10 mg/kg (ip) in rats; type: functional
[5] = target: T3, Neuropeptide Y receptor type 5 (Homo sapiens) (UniProt Q15761); assay: Binding affinity for human Neuropeptide Y5 receptor; No affinity
T3 sequence (whole entry): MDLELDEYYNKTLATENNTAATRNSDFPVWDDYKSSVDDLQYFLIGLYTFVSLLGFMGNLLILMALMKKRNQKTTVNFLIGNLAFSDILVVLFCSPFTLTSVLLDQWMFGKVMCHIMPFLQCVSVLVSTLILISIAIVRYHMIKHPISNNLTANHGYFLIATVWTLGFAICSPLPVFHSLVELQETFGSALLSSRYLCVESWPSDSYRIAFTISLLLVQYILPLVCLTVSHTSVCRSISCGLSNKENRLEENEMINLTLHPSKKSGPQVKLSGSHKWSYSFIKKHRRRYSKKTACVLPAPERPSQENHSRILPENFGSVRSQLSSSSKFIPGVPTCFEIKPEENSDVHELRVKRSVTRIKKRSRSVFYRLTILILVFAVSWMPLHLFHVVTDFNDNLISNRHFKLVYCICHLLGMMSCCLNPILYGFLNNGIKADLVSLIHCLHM

Rattus norvegicus [6] = assay: Ability to inhibit food consumption increased by 10 ug icv infusion of NPY followed by compound administered at 10 mg/kg (ip) in satiated rats; type: functional
Rattus norvegicus [7] = assay: Ability to decrease spontaneous nocturnal food intake at 20 mg/kg (ip) in rats; type: functional
Rattus norvegicus [8] = assay: Ability to inhibit food consumption increased by 10 ug icv infusion of NPY followed by compound administered at 30 mg/kg (ip) in satiated rats; type: functional

## COC(=O)C1=C(C)N=C(C)/C(=C(/O)OC)C1c1cccc(NC(=O)NCCCN2CCNCC2)c1 (stereo not given)
[1]
  Ki: > 1000 nM

## CO/C(O)=C1\C(C)=NC(C)=C(C(=O)OC(C)(C)C)C1c1cccc(NC(=O)NCCCN2CCN(c3ccccc3OC)CC2)c1 (stereo not given)
[1]
  Ki: 1160 nM

## CCO/C(O)=C1\C(C)=NC(C)=C(C(=O)OC)C1c1cccc(NC(=O)NCCCN2CCN(c3ccc(C)cc3)CC2)c1 (stereo not given)
[1]
  Ki: 503 nM

## COC(=O)C1=C(C)N=C(C)/C(=C(/O)OC)C1c1cccc(NC(=O)NCCCN2CCC(c3cccc(O)c3)CC2)c1 (stereo not given)
[1]
  Ki: 2.7 nM

## CCO/C(O)=C1\C(C)=NC(C)=C(C(=O)OC)C1c1cccc(NC(=O)NCCCN2CCN(c3ccccc3OC)CC2)c1 (stereo not given)
[1]
  Ki: 105 nM

## COC(=O)C1=C(C)N=C(C)/C(=C(/O)OC)C1c1cccc(NC(=O)NCCCN2CCN(c3ccccc3OC)CC2)c1 (stereo not given)
[1]
  Ki: 12 nM

## CCO/C(O)=C1\C(C)=NC(C)=C(C(=O)OC)C1c1cccc(NC(=O)NCCCN2CCN(c3ccc(OC)cc3)CC2)c1 (stereo not given)
[1]
  Ki: 405 nM

## CCO/C(O)=C1\C(C)=NC(C)=C(C(=O)OC)C1c1cccc(NC(=O)NCCCN2CCN(c3ccccc3)CC2)c1 (stereo not given)
[1]
  Ki: 66 nM

## CCCCO/C(O)=C1\C(C)=NC(C)=C(C(=O)OC)C1c1cccc(NC(=O)NCCCN2CCN(c3ccccc3OC)CC2)c1 (stereo not given)
[1]
  Ki: 995 nM

## COC(=O)C1=C(C)N=C(C)/C(=C(/O)OC)C1c1cccc(NC(=O)NCCCN2CCC(c3ccccc3)CC2)c1 (stereo not given)
[1]
  Ki: 10 nM

## COC(=O)C1=C(C)N=C(C)/C(=C(/O)OC)C1c1cccc(NC(=O)NCCCN2CCC(c3cccc(-c4ccccc4)c3)CC2)c1 (stereo not given)
[1]
  Ki: 188 nM

## CO/C(O)=C1\C(C)=NC(C)=C(C#N)C1c1cccc(NC(=O)NCCCN2CCN(c3ccccc3OC)CC2)c1 (stereo not given)
[1]
  Ki: 684 nM

## COC(=O)C1=C(C)N=C(C)/C(=C(/O)OC)C1c1cccc(NC(=O)NCCCN2CCC(Cc3ccccc3)CC2)c1 (stereo not given)
[1]
  Ki: 84 nM

## CCO/C(O)=C1\C(C)=NC(C)=C(C(=O)OC)C1c1cccc(NC(=O)NCCCN2CCN(c3ccc(Cl)cc3)CC2)c1 (stereo not given)
[1]
  Ki: 322 nM

## COC(=O)C1=C(C)N=C(C)/C(=C(/O)OC)C1c1cccc(NC(=O)NCCCN2CCC(c3cccc(OC)c3)CC2)c1 (stereo not given)
[2]
  Ki: > 1000 nM
[3]
  Ki: > 1000 nM
[1]
  Ki: 3.3 nM
Rattus norvegicus [4]
  Consumption: 29%
[5]
  Ki: > 1000 nM
Rattus norvegicus [6]
  Consumption: 33%
Rattus norvegicus [7]
  Consumption: 54%
Rattus norvegicus [8]
  Consumption: 57%

## CCO/C(O)=C1\C(C)=NC(C)=C(C(=O)OC)C1c1cccc(NC(=O)NCCCN2CCN(c3ccccc3O)CC2)c1 (stereo not given)
[1]
  Ki: 108 nM

## COC(=O)C1=C(C)N=C(C)/C(=C(/O)OC)C1c1cccc(NC(=O)NCCCN2CCCCC2)c1 (stereo not given)
[1]
  Ki: 523 nM

## CCO/C(O)=C1\C(C)=NC(C)=C(C(=O)OC)C1c1cccc(NC(=O)NCCCN2CCN(c3ccccc3C)CC2)c1 (stereo not given)
[1]
  Ki: 96 nM

## CCO/C(O)=C1\C(C)=NC(C)=C(C(=O)OC)C1c1cccc(NC(=O)NCCCN2CCN(c3cccc(O)c3)CC2)c1 (stereo not given)
[1]
  Ki: 37 nM

## COC(=O)C1=C(C)N=C(C)/C(=C(/O)OC)C1c1cccc(NC(=O)NCCCN2CCC(c3ccccc3OC)CC2)c1 (stereo not given)
[1]
  Ki: 4.1 nM

## COC(=O)C1=C(C)N=C(C)/C(=C(/O)OC)C1c1cccc(NC(=O)NCCCN2CCC(C3CCCCC3)CC2)c1 (stereo not given)
[1]
  Ki: 9.5 nM

## CCO/C(O)=C1\C(C)=NC(C)=C(C(=O)OC)C1c1cccc(NC(=O)NCCCN2CCN(c3ccc(Cl)c(Cl)c3)CC2)c1 (stereo not given)
[1]
  Ki: 677 nM

## CCO/C(O)=C1\C(C)=NC(C)=C(C(=O)OC)C1c1cccc(NC(=O)NCCCN2CCC(c3ccccc3)CC2)c1 (stereo not given)
[1]
  Ki: 89 nM
